# According to the supplement of paper PMC10307832:
# Experiments:
# Experiment in all cases: relative viability (nuclei count vs DMSO), 5 days (fraction); higher = more cells survive
# LOU-NH91 = system: LOU-NH91
# Outline: (§1)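 For relative viability, nuclei counts in treated wells were divided by those in vehicle wells. Lung cancer cell lines had been pin-tool dosed in 1536-well plates the day after seeding and cultured for 5 days, then fixed and stained in one step (final 0.05% Triton X-100, 1% formaldehyde, 1 ug/ml Hoechst) and imaged at 4×. Doses were one drug alone or a fixed anchor-drug dose plus five library-drug doses (not always all listed) in √10 steps, and values are duplicate-plate medians.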
# SW 900 = system: SW 900
# Outline: as §1
# ChaGo-K-1 = system: ChaGo-K-1
# Outline: as §1
# COR-L 105 = system: COR-L 105
# Outline: as §1
# HCC-366 = system: HCC-366
# Outline: as §1
# LK-2 = system: LK-2
# Outline: as §1
# NCI-H1944 = system: NCI-H1944
# Outline: as §1
# NCI-H1666 = system: NCI-H1666
# Outline: as §1
# NCI-H596 = system: NCI-H596
# Outline: as §1
# NCI-H441 = system: NCI-H441
# Outline: as §1
# H3255 = system: H3255
# Outline: as §1
# PC-3 [JPC-3] = system: PC-3 [JPC-3]
# Outline: as §1
# NCI-H1792 = system: NCI-H1792
# Outline: as §1
# EKVX = system: EKVX
# Outline: as §1
# A-427 = system: A-427
# Outline: as §1
# NCI-H1975 = system: NCI-H1975
# Outline: as §1
# NCI-H520 = system: NCI-H520
# Outline: as §1
# SK-MES-1 = system: SK-MES-1
# Outline: as §1
# NCI-H1755 = system: NCI-H1755
# Outline: as §1
# EMC-BAC-2 = system: EMC-BAC-2
# Outline: as §1
# NCI-H1734 = system: NCI-H1734
# Outline: as §1
# NCI-H2170 = system: NCI-H2170
# Outline: as §1
# NCI-H23 = system: NCI-H23
# Outline: as §1
compound,measurement,setting,value
CC(C)Oc1cc(Nc2nc(N[C@@H](C)c3ccc(F)cn3)ncc2Cl)n[nH]1 [AZ23] + O=C(c1cc(Cc2n[nH]c(=O)c3ccccc23)ccc1F)N1CCN(C(=O)C2CC2)CC1 [Olaparib] (partner 8 µM),relative viability,LOU-NH91; first compound 0.01 µM,0.958
same,relative viability,LOU-NH91; first compound 0.03162 µM,0.961
same,relative viability,LOU-NH91; first compound 0.3162 µM,0.94
same,relative viability,SW 900; first compound 0.01 µM,0.804
same,relative viability,SW 900; first compound 0.3162 µM,0.869
same,relative viability,ChaGo-K-1; first compound 0.01 µM,0.519
same,relative viability,ChaGo-K-1; first compound 0.03162 µM,0.407
same,relative viability,ChaGo-K-1; first compound 0.3162 µM,0.406
same,relative viability,COR-L 105; first compound 0.01 µM,0.609
same,relative viability,COR-L 105; first compound 0.03162 µM,0.819
same,relative viability,COR-L 105; first compound 0.3162 µM,0.665
same,relative viability,HCC-366; first compound 0.01 µM,0.19
same,relative viability,HCC-366; first compound 0.03162 µM,0.451
same,relative viability,HCC-366; first compound 0.3162 µM,0.511
same,relative viability,LK-2; first compound 0.01 µM,0.717
same,relative viability,LK-2; first compound 0.03162 µM,0.825
same,relative viability,LK-2; first compound 0.3162 µM,0.68
same,relative viability,NCI-H1944; first compound 0.01 µM,0.443
same,relative viability,NCI-H1944; first compound 0.03162 µM,0.472
same,relative viability,NCI-H1944; first compound 0.3162 µM,0.448
same,relative viability,NCI-H1666; first compound 0.01 µM,0.718
same,relative viability,NCI-H1666; first compound 0.03162 µM,0.699
same,relative viability,NCI-H1666; first compound 0.3162 µM,0.759
same,relative viability,NCI-H596; first compound 0.01 µM,0.603
same,relative viability,NCI-H596; first compound 0.03162 µM,0.749
same,relative viability,NCI-H596; first compound 0.3162 µM,0.665
same,relative viability,NCI-H441; first compound 0.01 µM,0.645
same,relative viability,NCI-H441; first compound 0.03162 µM,0.69
same,relative viability,NCI-H441; first compound 0.3162 µM,0.494
same,relative viability,H3255; first compound 0.01 µM,0.524
same,relative viability,H3255; first compound 0.03162 µM,0.581
same,relative viability,H3255; first compound 0.3162 µM,0.542
same,relative viability,PC-3 [JPC-3]; first compound 0.01 µM,1.35
same,relative viability,PC-3 [JPC-3]; first compound 0.03162 µM,1.41
same,relative viability,PC-3 [JPC-3]; first compound 0.3162 µM,1.17
same,relative viability,NCI-H1792; first compound 0.01 µM,0.27
same,relative viability,NCI-H1792; first compound 0.03162 µM,0.594
same,relative viability,NCI-H1792; first compound 0.3162 µM,0.373
same,relative viability,EKVX; first compound 0.01 µM,0.912
same,relative viability,EKVX; first compound 0.03162 µM,0.97
same,relative viability,EKVX; first compound 0.3162 µM,0.895
same,relative viability,A-427; first compound 0.01 µM,0.82
same,relative viability,A-427; first compound 0.03162 µM,0.885
same,relative viability,A-427; first compound 0.3162 µM,0.856
same,relative viability,NCI-H1975; first compound 0.01 µM,0.88
same,relative viability,NCI-H1975; first compound 0.03162 µM,0.904
same,relative viability,NCI-H1975; first compound 0.3162 µM,0.822
same,relative viability,NCI-H520; first compound 0.01 µM,0.346
same,relative viability,NCI-H520; first compound 0.03162 µM,0.328
same,relative viability,NCI-H520; first compound 0.3162 µM,0.312
same,relative viability,SK-MES-1; first compound 0.03162 µM,0.833
same,relative viability,SK-MES-1; first compound 0.3162 µM,0.764
same,relative viability,NCI-H1755; first compound 0.01 µM,0.962
same,relative viability,NCI-H1755; first compound 0.03162 µM,0.955
same,relative viability,NCI-H1755; first compound 0.3162 µM,1
same,relative viability,EMC-BAC-2; first compound 0.01 µM,0.545
same,relative viability,EMC-BAC-2; first compound 0.03162 µM,0.514
same,relative viability,EMC-BAC-2; first compound 0.3162 µM,0.503
same,relative viability,NCI-H1734; first compound 0.01 µM,0.628
same,relative viability,NCI-H1734; first compound 0.03162 µM,0.673
same,relative viability,NCI-H1734; first compound 0.3162 µM,0.6
same,relative viability,NCI-H2170; first compound 0.01 µM,0.649
same,relative viability,NCI-H2170; first compound 0.03162 µM,0.658
same,relative viability,NCI-H2170; first compound 0.3162 µM,0.619
same,relative viability,NCI-H23; first compound 0.03162 µM,0.263
same,relative viability,NCI-H23; first compound 0.3162 µM,0.394
